Measurements: patent US20100048727A1, “PERFLUOROKETONE COMPOUNDS AND USES THEREOF” (priority 2007, published 2010)
Entries after “also recorded” stand apart in the source; their conditions may differ.

What was measured:
EAE-induced SJL/J mice = assay: Clinical course of EAE in SJL/J mice treated with fluoroketone compounds; format: in vivo
human GIVA cPLA2 = biological target: T1, human GIVA cPLA2 (Homo sapiens, UniProt P47712); assay: GIVA cPLA2 specific mixed micelle assay; format: biochemical; details: 0.091 mole fraction
T1 sequence (P47712 1-749): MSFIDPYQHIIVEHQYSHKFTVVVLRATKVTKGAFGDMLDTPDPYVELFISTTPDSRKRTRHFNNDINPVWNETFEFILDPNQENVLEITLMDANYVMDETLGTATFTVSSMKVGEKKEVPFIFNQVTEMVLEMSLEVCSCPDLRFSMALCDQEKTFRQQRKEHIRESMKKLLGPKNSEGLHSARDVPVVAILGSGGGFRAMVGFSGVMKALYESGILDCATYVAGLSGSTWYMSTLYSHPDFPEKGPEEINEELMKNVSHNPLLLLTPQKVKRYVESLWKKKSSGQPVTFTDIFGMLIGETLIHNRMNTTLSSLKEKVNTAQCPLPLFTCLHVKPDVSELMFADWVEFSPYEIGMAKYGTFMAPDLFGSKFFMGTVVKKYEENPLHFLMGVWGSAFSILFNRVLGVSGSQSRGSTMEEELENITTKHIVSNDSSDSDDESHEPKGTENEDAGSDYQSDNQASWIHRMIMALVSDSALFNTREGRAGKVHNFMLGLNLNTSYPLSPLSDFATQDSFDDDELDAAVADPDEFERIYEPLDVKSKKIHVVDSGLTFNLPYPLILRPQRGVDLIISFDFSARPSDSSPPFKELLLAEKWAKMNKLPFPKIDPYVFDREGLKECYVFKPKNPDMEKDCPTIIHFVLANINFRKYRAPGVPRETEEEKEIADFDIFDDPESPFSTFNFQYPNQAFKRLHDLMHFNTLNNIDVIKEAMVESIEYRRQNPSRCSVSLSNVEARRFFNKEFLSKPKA
Method: Inhibition of phospholipase A2 by perfluoroketone compounds. […] (2002) J. Med. Chem. 45: 2891-2893; Kokotos, G. et al. (2004). J. Med. Chem. 47: 3615-3628). The standard GVIA iPLA2 activity assay utilizes DPPC/Triton™ X-100 mixed micelles at a ratio of 1:4 as previously described (Stephens D. et al. (2006). J. Med. Chem., 49: 2821-2828). GV sPLA2 activity was measured in an assay similar to the assays for GIVA cPLA2 and GVIA iPLA2.

[1] = system: spinal cord contusion injury (SCI) mice; assay: Spinal cord contusion injury in mice: BMS locomotor recovery and histology; format: in vivo
Method: Spinal cord contusion and drug administration. All surgical procedures were approved by the McGill University Animal Care Committee and followed the guidelines of the Canadian Council on Animal Care. Adult (8-10 weeks old) female BALB/c (Charles River Canada), cPLA2 IVA^−/− and wild type littermates mice, were anesthetized with ketamine:xylazine:acepromazine (50:5:1 mg/kg). After performing a laminectomy at the 11th thoracic vertebrae, the exposed spinal cord was contused using the Infinite Horizons Impactor™ device (Precision Scientific Instrumentation, Lexington, Ky.). Moderate injuries were made using a force of 50 kDynes, and only animals that had tissue displacement ranged between 400-600 μm were used (Ghasemblou et al. (2005). Exp Neurol. 196(1): 9-17).
PLA2 inhibitor treatment. Mice were given daily intraperitoneal injections of 2 mM fluoroketone (iPLA2 inhibitor; FKGK11) in 200 μl (6.85 mg/kg), starting 1 h after contusion and for 14 days. The control group that also had SCI were treated daily with vehicle.
Functional assessment. Locomotor recovery was evaluated in an open-field test using the Basso Mouse Scale (BMS) (Basso D. M. et al., (2006). J Neurotrauma. 23(5): 635-59). The BMS analysis of hindlimb movements and coordination was carried out by two independent assessors and the consensus score taken. The final score is presented as mean±SEM.
Histology. Mice were perfused with 4% paraformaldehyde in 0.1M phosphate buffer (PB) at 1, 3, 7, 14 and 28 days post-lesion. 5 mm length of the spinal cord containing the lesion site was removed, cryoprotected with 30% sucrose in 0.1M PB, and cut in serial sections (16 μm thick). For double immunoflorescence, sections were incubated with antibodies against iPLA2 VIA (Cayman Chemical) combined with antibodies against Mac-1 (for macrophages/microglia, Serotec), GFAP (for astrocytes, Zymed Labs), CC1 (for oligodendrocytes, Calbiochem), NeuN (for neurons, 1:500, Chemicon) and SMI312 (for axons, Covance). Immunfluorescence labeling for 5-hydroxytryptamine (5-HT) (Sigma, Aldreich) was also performed to assess innervation of serotonergic axons caudal to the lesion. In addition, one series of serial sections of the spinal cord were stained with Luxol fast blue (LFB) histochemistry, which stains myelin, and another series stained with cresyl violet histochemistry to quantify neuronal loss.
Quantification of histological results. Histological quantification was performed from spinal cord sections harvested at 28 days post-lesion. Tissue sections were viewed with an Axioskop™ 2 Plus microscope (Zeiss) and images captured using a Qlmaging Retiga™ 1300 camera, and quantification done using BioQuant™ Nova Prime image analysis system (BioQuant Image Analysis Corp.). Tissue and myelin sparing was calculated by delineating the GFAP and LFB stained sections. Neuronal survival was assessed by counting the neuron profiles in the ventral horn of the spinal cord in tissue sections stained with cresyl violet. Assessment of serotonergic innervation was performed by calculating the area occupied by serotoninergic axons in the lateral funiculi and ventral horns of spinal cord sections taken at a distance of 1000 μm caudal to the lesion site.
Statistical analyses (spinal cord injury experiments, Examples 19-20). Data are shown as mean±s.e.m. RT-PCR and Western blot analyses were done using one-way ANOVA with post-hoc Dunnett's test. Statistical analyses of the functional and histological assessments were performed using two-way repeated measures ANOVA with post-hoc Tukey's test for multiple comparisons. Differences were considered significant at p<0.05.

With `O=C(CCCCc1ccccc1)C(F)(F)C(F)(F)F` [FKGK11, 1,1,1,2,2-Pentafluoro-7-phenyl-3-heptanone] the “clinical disability score between days 22-27” value (EAE-induced SJL/J mice; delayed treatment from day 11, 5-point scale) was 0.8, the “maximal clinical disability score” value (EAE-induced SJL/J mice; delayed treatment from day 11, on day 17, 5-point scale) was 1.4 and the “clinical disability score at second peak” value (EAE-induced SJL/J mice; delayed treatment from day 11, on day 30, 5-point scale) was 1.2. For the same compound, the “severity and progression of the disease (EAE)” value (EAE-induced SJL/J mice; delayed treatment from day 11 after immunization, 2 weeks, i.p., vs vehicle) was “marked reduction”, the “maximum clinical disability score” value (EAE-induced SJL/J mice; treatment before onset of symptoms, daily for 3 weeks from day 6, course until day 40, 5-point scale) was 1.0 grade and the “clinical severity and progression of EAE” value (EAE-induced SJL/J mice; treatment before onset of symptoms, daily for 3 weeks from day 6, vs vehicle) was “marked reduction”. The “Average percent inhibition GIVA cPLA2 (class symbol)” value (human GIVA cPLA2) was “N.D. (N.D. means compounds with less than 25% inhibition (or no detectable inhibition))”, the “main BMS scores (locomotor recovery)” value ([1]; 6.85 mg/kg i.p. daily for 14 days from 1 h after contusion, vs vehicle) was “did not reach statistical significance; also recorded: No significant differences” and the “BMS subscores (fine locomotor coordination and control)” value ([1]; 6.85 mg/kg i.p. daily for 14 days, 28 days after SCI, vs vehicle) was “significant improvement; also recorded: significantly better BMS subscores”. For the same compound, the “sparing of serotonergic fibers in the lateral funiculi” value ([1]; 1000 μm caudal to the epicenter, 28 days after SCI) was “significantly greater sparing of serotonergic fibers”, the “increase in serotonergic (5-HT) fibers in the lateral white matter” value ([1]; 1000 μm caudal to the epicenter, 28 days after SCI, compared to vehicle-treated SCI controls) was about 40% and the “neuronal survival in the ventral horn” value ([1]; 28 days after SCI, vs vehicle) was “little if any effect; also recorded: No significant differences”. The tissue sparing ([1]; epicenter and adjacent areas, 28 days after SCI, vs vehicle) was “significantly greater tissue sparing; also recorded: greater amount of tissue sparing” and the “myelin sparing (Luxol fast blue)” value ([1]; regions near the epicenter, 28 days after SCI, vs vehicle) was “significant enhancement of myelin sparing; also recorded: greater sparing of myelin”.
